Source: patent US9815787B2, “Sulfonamide derivative or pharmaceutically acceptable acid addition salt thereof” (UNIVERSITY OF TSUKUBA, priority 2013, dated 2017)

Target: T1, OX2R (Homo sapiens, UniProt O43614)
T1 construct: expressed in transfected cells; host or cells: CHO (Chinese hamster ovary) cells constitutively expressing the OX2R gene and NFAT-luciferase (CHOOX2R)
T1 sequence (O43614 1-444): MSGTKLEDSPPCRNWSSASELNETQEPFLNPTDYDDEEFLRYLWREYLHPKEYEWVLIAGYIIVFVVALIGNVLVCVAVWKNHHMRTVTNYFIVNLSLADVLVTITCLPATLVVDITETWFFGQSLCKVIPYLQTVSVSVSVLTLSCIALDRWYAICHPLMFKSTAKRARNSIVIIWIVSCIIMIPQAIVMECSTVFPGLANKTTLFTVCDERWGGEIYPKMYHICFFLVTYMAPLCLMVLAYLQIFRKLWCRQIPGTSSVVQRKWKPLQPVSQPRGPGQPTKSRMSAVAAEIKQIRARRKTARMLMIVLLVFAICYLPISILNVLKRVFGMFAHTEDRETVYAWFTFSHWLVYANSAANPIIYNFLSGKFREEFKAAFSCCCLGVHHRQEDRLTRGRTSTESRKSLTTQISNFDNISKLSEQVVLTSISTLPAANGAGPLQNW
Assay: Evaluation of agonist activity against OX2R (CHOOX2R cells, Fura2AM fluorescence, FDSS3000)
Format: cell-based
Settings: CHOOX2R cells, relative to orexin-A as full agonist (100%)
In short: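 CHO cells stably expressing human OX2R (and NFAT-luciferase), cultured 48 h in 5% FBS DMEM. Agonist response read as change in Fura2AM fluorescence on compound addition in HEPES buffer. Final compound concentrations 0.1, 1.0 or 10 μM; 1% DMSO.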

## COc1ccc(-c2cccc(C(=O)N(C)C)c2)cc1S(=O)(=O)Nc1cccc(NCCNC(=O)c2cccc(C#N)c2)c1 [Example 72, 3′-(N-(3-((2-(3-cyanobenzamido)ethyl)amino)phenyl)sulfamoyl)-4′-methoxy-N,N-dimethyl-[1,1′-biphenyl]-3-carboxamide]
Test compound 0.1 μM
  Response (0.1 μM (%)): <5%
Test compound 1.0 μM
  Response (1.0 μM (%)): 16%
Test compound 10 μM
  Response (10 μM (%)): 88%
